The target in experiment [1] is T1, Thromboxane-A synthase (Homo sapiens, UniProt P24557).
T1 sequence (P24557 whole entry): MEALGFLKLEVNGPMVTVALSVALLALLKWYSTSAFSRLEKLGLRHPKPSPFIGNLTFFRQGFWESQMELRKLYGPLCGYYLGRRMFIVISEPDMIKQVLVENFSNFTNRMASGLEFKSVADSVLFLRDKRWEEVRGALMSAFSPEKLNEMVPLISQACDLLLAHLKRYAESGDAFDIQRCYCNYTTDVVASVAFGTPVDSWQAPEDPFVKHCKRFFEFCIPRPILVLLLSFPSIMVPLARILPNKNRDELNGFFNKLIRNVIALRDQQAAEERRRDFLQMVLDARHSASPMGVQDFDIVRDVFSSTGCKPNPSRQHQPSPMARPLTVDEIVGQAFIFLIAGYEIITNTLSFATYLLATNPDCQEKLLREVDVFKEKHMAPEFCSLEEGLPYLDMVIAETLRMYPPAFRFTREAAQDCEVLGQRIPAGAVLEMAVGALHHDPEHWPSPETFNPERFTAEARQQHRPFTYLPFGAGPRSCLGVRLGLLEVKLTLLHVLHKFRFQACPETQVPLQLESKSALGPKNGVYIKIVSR
In words: Tested for inhibitory activity against intact human platelet TXA2 formation. It is filed as functional.

The target in experiment [2] is T1, Thromboxane-A synthase. In words: Compound was tested for inhibitory activity against human platelet microsomal TXA2 synthase.

The values that follow come from ChEMBL document CHEMBL1123832, “Structure-activity relationships in an imidazole-based series of thromboxane synthase inhibitors” (J Med Chem, 1987).

As to `CCOC(=O)c1cccc(COC(COCc2ccc(OC)cc2)Cn2ccnc2)c1` (stereo unspecified), the half-maximal inhibitory concentration (IC50) on Thromboxane-A synthase [1] amounted to 7.2 µM.

As to `CCNC(=O)c1ccc(COC(COCc2ccc(OC)cc2)Cn2ccnc2)cc1` (stereo unspecified), at Thromboxane-A synthase [1], the 50% inhibitory concentration (IC50) stood at 12.4 µM.

With `COc1ccc(COCC(Cn2ccnc2)OCc2ccc(C(=O)O)cc2)cc1` (stereo unspecified), the figures for the IC50 at Thromboxane-A synthase [2] and at Thromboxane-A synthase [1] were 1.1 µM and 6.7 µM, respectively.

For `COc1ccc(COCC(Cn2ccnc2)OCc2ccc(S(C)(=O)=O)cc2)cc1` (stereo unspecified), the half-maximal inhibitory concentration (IC50) on Thromboxane-A synthase [1] came out at 24.9 µM.

On Thromboxane-A synthase [1], `COc1ccc(COCC(Cn2ccnc2)OCc2ccc(C(=O)Oc3ccccc3)cc2)cc1` (stereo unspecified) yielded an IC50 of 0.56 µM.

Regarding `COc1ccc(COCC(Cn2ccnc2)OCc2ccc(C(=O)OC(C)C)cc2)cc1` (stereo unspecified), the IC50 against Thromboxane-A synthase [1] amounted to 1.61 µM.

In the case of `COc1ccc(COCC(Cn2ccnc2)OCc2ccc(C(=O)OCc3ccccc3)cc2)cc1` (stereo unspecified), the 50% inhibitory concentration (IC50) against Thromboxane-A synthase [2] came out at 7.1 µM; at Thromboxane-A synthase [1], 1.49 µM.

As to `CCCCCCCCOC(=O)c1ccc(COC(COCc2ccc(OC)cc2)Cn2ccnc2)cc1` (stereo unspecified), inhibition at Thromboxane-A synthase [1] was half-maximal at 21 µM (IC50). This lies in the double-digit micromolar range.

In turn, `CCCCN(C)C(=O)c1ccc(COC(COCc2ccc(OC)cc2)Cn2ccnc2)cc1` (stereo unspecified) had an IC50 against Thromboxane-A synthase [1] of 5.4 µM.

`COc1ccc(COCC(Cn2ccnc2)OCc2ccc(OC)cc2)cc1` (stereo unspecified) showed an IC50 on Thromboxane-A synthase [1] of 9.9 µM.

At Thromboxane-A synthase [1], `COC(=O)c1ccc(COC(COCc2ccc(OC)cc2)Cn2ccnc2)cc1` (stereo unspecified) had an IC50 of 1.26 µM.

As for `CCOC(=O)c1ccc(COCC(Cn2ccnc2)OCc2ccc(OC)cc2)cc1` (stereo unspecified), the midpoint of inhibition against Thromboxane-A synthase [1], the IC50, lay at 3.6 µM.

On to `COc1ccc(COCC(Cn2ccnc2)OCc2ccc([S+](C)[O-])cc2)cc1` (stereo unspecified), for which the 50% inhibitory concentration (IC50) at Thromboxane-A synthase [1] worked out at 8.6 µM.

On Thromboxane-A synthase [1], `COc1ccc(COCC(Cn2ccnc2)OCc2ccc3c(c2)COC3=O)cc1` (stereo unspecified) showed an IC50 of 6.2 µM.

As to `CCOC(=O)c1ccc(COC(COCc2ccc(OC)cc2)Cn2ccnc2)cc1` (stereo unspecified), the half-inhibitory concentration (IC50) amounted to 5.3 µM against Thromboxane-A synthase [2] and 0.54 µM against Thromboxane-A synthase [1].

`COc1ccc(COCC(Cn2ccnc2)OCc2ccc(C(=O)N(C)C)cc2)cc1` (stereo unspecified) showed an IC50 against Thromboxane-A synthase [1] of 1.94 µM.

At Thromboxane-A synthase [1], `CCCOC(=O)c1ccc(COC(COCc2ccc(OC)cc2)Cn2ccnc2)cc1` (stereo unspecified) came in with a half-maximal inhibitory concentration (IC50) of 0.18 µM.

Consider `CCOC(=O)c1ccc(COCC(Cn2ccnc2)OCc2ccc(C(=O)OCC)cc2)cc1` (stereo unspecified), for which the concentration for half-maximal inhibition (IC50) on Thromboxane-A synthase [1] was found to be 0.7 µM.

Take `COc1ccc(COCC(Cn2ccnc2)OCc2ccc(C(N)=O)cc2)cc1` (stereo unspecified): half-maximal inhibition at Thromboxane-A synthase [1] (IC50) was put at 6 µM.

`COc1ccc(COCC(Cn2ccnc2)OCc2ccc(SC)cc2)cc1` (stereo unspecified): on Thromboxane-A synthase [1], 6.4 µM corresponded to half-maximal inhibition (IC50). This IC50 and that of the compound before are within 1.5-fold of each other.

For `CCCCOC(=O)c1ccc(COC(COCc2ccc(OC)cc2)Cn2ccnc2)cc1` (stereo unspecified), the concentration for half-maximal inhibition (IC50) against Thromboxane-A synthase [2] was 2 µM; against Thromboxane-A synthase [1] it was 0.2 µM.

Consider `COc1ccc(COCC(Cn2ccnc2)OCc2ccc(C(=S)N(C)C)cc2)cc1` (stereo unspecified), for which the IC50 on Thromboxane-A synthase [1] was 12.4 µM. This counts as double-digit micromolar.

One may read the IC50 as the concentration that inhibits the measured activity by half.
